According to paper PMC3288074, “Structural and Functional Analysis of Validoxylamine A 7′-phosphate Synthase ValL Involved in Validamycin A Biosynthesis” (PLoS ONE, 2012):

Key:
ValL = molecular target: T1, ValL (Streptomyces hygroscopicus, UniProt H2K885); test: X-ray crystallography (co-crystal, […] Å); type: binding; details: product analog; active site between N- and C-terminal domains; 5 mM trehalose incubated, 30% trehalose in cryoprotectant; pH 8.5, MgCl2; SeMet protein
T1 construct: dimer; selenomethionine-labelled for the 3T7D data set
T1 sequence (H2K885 1-497): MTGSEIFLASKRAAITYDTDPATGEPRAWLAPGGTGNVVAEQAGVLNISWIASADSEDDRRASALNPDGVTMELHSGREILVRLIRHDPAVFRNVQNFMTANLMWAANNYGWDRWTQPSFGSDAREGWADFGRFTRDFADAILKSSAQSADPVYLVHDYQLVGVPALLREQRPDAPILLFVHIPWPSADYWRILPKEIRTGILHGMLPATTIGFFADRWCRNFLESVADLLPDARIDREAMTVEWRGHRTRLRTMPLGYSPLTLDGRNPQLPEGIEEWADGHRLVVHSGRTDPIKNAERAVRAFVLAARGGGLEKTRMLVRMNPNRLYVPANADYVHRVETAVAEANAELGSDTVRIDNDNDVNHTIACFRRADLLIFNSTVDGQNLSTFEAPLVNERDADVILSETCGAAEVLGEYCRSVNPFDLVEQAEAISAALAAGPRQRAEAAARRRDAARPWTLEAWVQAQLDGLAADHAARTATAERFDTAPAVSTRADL

[1] = molecular target: the molecule itself; test: dynamic scattering; in solution; data not shown; conditions not given

Molecule | X-ray crystallography (co-crystal, 1.7 Å) (ValL) | stoichiometry N [1]
OC[C@H]1O[C@H](O[C@H]2O[C@H](CO)[C@@H](O)[C@H](O)[C@H]2O)[C@H](O)[C@@H](O)[C@@H]1O [trehalose] | The co-crystallization of ValL/trehalose led to the determination of ValL/trehalose complex structure. | 
Validoxylamine A 7'-phosphate synthase ValL (enzyme, ValL, validoxylamine A 7'-phosphate synthase of the validamycin A gene cluster of Streptomyces hygroscopicus var. jinggangensis 5008; the encoded protein has 497 aa; gene valL cloned into pET28a between EcoRI and BamHI sites; Removal of the tag is not mentioned; The ValL/trehalose structure (3T7D) was obtained from selenomethionine-labelled ValL; the apo structure (3T5T) from native ValL; also …) TGSEIFLASKRAAITYDTDPATGEPRAWLAPGGTGNVVAEQAGVLNISWIASADSEDDRRASALNPDGVTMELHSGREILVRLIRHDPAVFRNVQNFMTANLMWAANNYGWDRWTQPSFGSDAREGWADFGRFTRDFADAILKSSAQSADPVYLVHDYQLVGVPALLREQRPDAPILLFVHIPWPSADYWRILPKEIRTGILHGMLPATTIGFFADRWCRNFLESVADLLPDARIDREAMTVEWRGHRTRLRTMPLGYSPLTLDGRNPQLPEGIEEWADGHRLVVHSGRTDPIKNAERAVRAFVLAARGGGLEKTRMLVRMNPNRLYVPANADYVHRVETAVAEANAELGSDTVRIDNDNDVNHTIACFRRADLLIFNSTVDGQNLSTFEAPLVNERDADVILSETCGAAEVLGEYCRSVNPFDLVEQAEAISAALAAGPRQRAEAAARRRDAARPWTLEAWVQAQLDGLAADHAARTATAERFDTAPAVSTRADL |  | 2
